Measurements as given in patent publication US20090298708A1, “2'-DEOXY-2'-FLUORO-BETA-D-ARABINONUCLEOSIDE 5'-TRIPHOSPHATES AND THEIR USE IN ENZYMATIC NUCLEIC ACID SYNTHESIS” (priority 2006, published 2009).

Assays:
[1] = tested on: Phusion DNA polymerase (Ph); assay: Dropout assay, fidelity of incorporation by Ph; type: biochemical; settings: 30 min reaction time, 55° C., templates PF21, PF41
From the text: FIG. 13 illustrates the fidelity of 2′F-araNTP incorporation on pyrimidine rich DNA template PF21 by Ph DNA polymerase. […] Template PF41 and primer PF20 are shown; PF39 is a 27-nt DNA control.
FIG. 14 illustrates the fidelity of 2′F-araNTP incorporation on purine rich DNA template PF41 by Ph DNA polymerase. The base sequence of the primer, DNA template and resulting terminated products in different dropout conditions (condition 1-5) is shown. […] Lane 1: dNTPs; 2: drop out dCTP (i.e. dATP, dGTP and dTTP, shorten as AGT, same coding for lanes 3-5), lane 6: 2′F-araNTPs; 7: drop out 2′F-araCTP (i.e. 2′F-araATP, 2′F-araGTP, 2′F-araTTP, shorten as AGT; same coding for lanes 8-10). The template PF41 and the primer PF20 are shown; PF39 is a 27mer DNA control.
For example, the 2′F-araNTP of interest is removed from the pool, and the ensuing synthesis on DNA template (e.g. PF21, PF23, PF41, PF43) assessed in comparison with a control reaction containing all four 2′F-araNTPs. For comparison, dropout experiments containing dNTPs are run in parallel. […] Apparent fidelity was calculated according to the equation:
(§1) 1−[(% full-length−2′F-araNTP)/(% full-length+2′F-araNTP)]
In one of these assays, 2′F-araATP was removed from the pool, and the ensuing synthesis assessed in comparison with a control reaction containing all four 2′F-araNTPs. For comparison, dropout experiments containing dNTPs were run in parallel (FIGS. 11-14).
Phusion DNA polymerase (Ph) was evaluated for fidelity of 2′F-araNTP incorporation using the same dropout assay. All four dropout experiments were conducted with the same DNA template PF21 (FIG. 13), or PF41 (FIG. 14).

[2] = target: T1, DV DNA polymerase (Pyrococcus sp., UniProt Q51334, D141A/DEL493-1029/E143A); assay: Dropout assay, fidelity of incorporation by DV; type: biochemical, Pyrococcus species GB-D; settings: 30 min reaction time, 25 μM triphosphates, 55° C., template A: PF41, G: PF43, T: PF21, C: PF23
T1 construct: purchased New England Biolabs; host or cells: E. coli
Method: (§2) FIG. 11A illustrates the fidelity of 2′F-araATP incorporation on a DNA template PF41 by DV and 9N DNA polymerases. Reaction conditions: 0.8 unit DV and 9N, 25 μM triphosphates at 55° C. in 30 μL reaction volume; incubation time: 30 min. Group 1 & 5: dNTPs; 2 & 6: dropout of dATP; 3 & 7: 2′F-araNTPs, 4 & 8: dropout of 2′F-araATP; 27mer control DNA is PF39.
(§3) FIG. 11B illustrates the fidelity of 2′F-araGTP incorporation on DNA template PF43 by DV and 9N DNA polymerases. Reaction conditions: primer/template (1:1 molar ratio): 100 nM; 0.4 μL (0.8 unit) DV, 9N, 25 μM triphosphate concentration at 55° C. in 30 μL reaction volume. Reaction time for dNTPs (group 1, 5) was 30 min and others were shown above. Group 1 & 5: dNTPs; 2 & 6: drop out dGTP (i.e. dTTP, dCTP and dATP), 3 & 7: 2TF-araNTPs, 4 & 8: drop out 2′F-araGTP; lane P is the template PF41 as the full-length product control; PF39 is a 27-nt DNA control. All samples were analyzed by 12% denaturing PAGE.
(§4) FIG. 12A illustrates the fidelity of 2′F-araTTP incorporation by DV and 9N DNA polymerases on a DNA template PF21. Reaction conditions: 100 nM primer/template (1:1 molar ratio); 0.4 μL (0.8 unit) DV or 9N, 25 μM triphosphate concentration at 55° C. in 30 μL reaction volume. Reaction time for dNTPs (group 1, 5) was 30 min and others were shown above. Groups 1 & 5: dNTPs; 2 & 6: drop out dTTP; 3 & 7: 2′F-araNTPs; 4 & 8: drop out 2′F-araTTPs. in B: group 1 & 5: dNTPs; 2 & 6: drop out dCTP; 3 & 7: 2′F-araNTPs; 4 & 8: drop out 2′F-araCTPs; PF39 is a 27-nt DNA control. All samples were analyzed by 12% denaturing PAGE.
as §4, with “12B” for “12A”, “fidelity study” for “fidelity”, “2′F-araCTP” for “2′F-araTTP”, “PF23.” for “PF21.”, “(groups” for “(group”, “Groups” for “Groups 1 & 5: dNTPs; 2 & 6: drop out dTTP; 3 & 7: 2′F-araNTPs; 4 & 8: drop out 2′F-araTTPs. in B: group”
(§5) “Dropout assays” (Ichida et al. (2005) J. Am. Chem. Soc. 127:2802-2803) were conducted to assess the fidelity of 2′F-araNTP incorporation (each of 2′F-araATP, 2′F-araCTP, 2′F-araGTP and 2′F-araTTP) by various DNA polymerases (FIGS. 11-14). For example, the 2′F-araNTP of interest is removed from the pool, and the ensuing synthesis on DNA template (e.g. PF21, PF23, PF41, PF43) assessed in comparison with a control reaction containing all four 2′F-araNTPs. For comparison, dropout experiments containing dNTPs are run in parallel. Full-length DNA and FANA products are obtained when all four dNTPs (group 1 and 5) and 2′F-araNTPs (groups 3 and 7) were available, however, some pausing may occur during synthesis of the arabinose modified oligomers. Apparent fidelity was calculated according to the equation:
as §1
(§6) at 30 min reaction time (sample equation for dNTP values). >99% means that the full-length product was not detectable in our dropout assays.
(§7) “Dropout assays” (Ichida et al. (2005) J. Am. Chem. Soc. 127:2802-2803) were conducted to assess apparent fidelity of 2′F-araNTP incorporation by DV and 9N. In one of these assays, 2′F-araATP was removed from the pool, and the ensuing synthesis assessed in comparison with a control reaction containing all four 2′F-araNTPs. For comparison, dropout experiments containing dNTPs were run in parallel (FIGS. 11-14). Full-length DNA and FANA products were obtained when all four dNTPs (group 1 and 5) and 2′F-araNTPs (groups 3 and 7) were available, although some pausing was evident during synthesis of the arabinose modified oligomers.

[3] = tested on: DNA polymerases; assay: Primer extension assays, statement for all enzymes studied; type: biochemical; settings: DNA template PF24; 9N, HIV, MMLV, DV
[4] = target: T2, 9N DNA polymerase (Thermococcus sp., UniProt Q56366, E143D); assay: Dropout assay, fidelity of incorporation by 9N; type: biochemical, Thermococcus species (strain 9° N-7); settings: 30 min reaction time, 25 μM triphosphates, 55° C., template A: PF41, G: PF43, T: PF21, C: PF23
T2 construct: purchased New England Biolabs; host or cells: E. coli
Method: as §2, §3, §4
as §4, with “12B” for “12A”, “fidelity study” for “fidelity”, “2′F-araCTP” for “2′F-araTTP”, “PF23.” for “PF21.”, “(groups” for “(group”, “Groups” for “Groups 1 & 5: dNTPs; 2 & 6: drop out dTTP; 3 & 7: 2′F-araNTPs; 4 & 8: drop out 2′F-araTTPs. in B: group”
as §5, §1, §6, §7

Nc1ccn([C@@H]2O[C@H](COP(=O)(O)OP(=O)(O)OP(=O)(O)O)[C@@H](O)[C@@H]2F)c(=O)n1 [2′F-araCTP, 1-(2-deoxy-2-fluoro-β-D-arabinofuranosyl)cytosine 5′-triphosphate]
% Apparent Fidelity, 2′F-araNTP [1]: C: >99%
% Apparent Fidelity, 2′F-araNTP [2]: C: 50%
order of incorporation efficiency [3]: dCTP=2′F-rCTP>2′F-araCTP >>rCTP
% Apparent Fidelity, 2′F-araNTP [4]: C: 43%

Nc1ccn([C@@H]2O[C@H](COP(=O)(O)OP(=O)(O)OP(=O)(O)O)[C@@H](O)[C@H]2F)c(=O)n1 [2′F-rCTP, 1-(2-deoxy-2-fluoro-β-D-ribofuranosyl) cytosine 5′-triphosphate, reference compound]
order of incorporation efficiency [3]: dCTP=2′F-rCTP>2′F-araCTP >>rCTP

Cc1cn([C@H]2C[C@H](O)[C@@H](COP(=O)(O)OP(=O)(O)OP(=O)(O)O)O2)c(=O)[nH]c1=O [dTTP, reference compound]
% Apparent Fidelity, dNTP [1]: >99%
% Apparent Fidelity, dNTP [2]: 19%
% Apparent Fidelity, dNTP [4]: 32%

Nc1ccn([C@H]2C[C@H](O)[C@@H](COP(=O)(O)OP(=O)(O)OP(=O)(O)O)O2)c(=O)n1 [dCTP]
% Apparent Fidelity, dNTP [1]: >99%
% Apparent Fidelity, dNTP [2]: 3%
order of incorporation efficiency [3]: dCTP=2′F-rCTP>2′F-araCTP >>rCTP
% Apparent Fidelity, dNTP [4]: 82%

Cc1cn([C@@H]2O[C@H](COP(=O)(O)OP(=O)(O)OP(=O)(O)O)[C@@H](O)[C@@H]2F)c(=O)[nH]c1=O [2′F-araTTP, 1-(2-deoxy-2-fluoro-β-D-arabino-furanosyl)thymine 5′-triphosphate]
% Apparent Fidelity, 2′F-araNTP [1]: T: >99%
% Apparent Fidelity, 2′F-araNTP [2]: T: 3%
% Apparent Fidelity, 2′F-araNTP [4]: T: 76%
